From US12516039B2, “N-linked isoquinoline amides as LRRK2 inhibitors, pharmaceutical compositions, and uses thereof” (Merck Sharp & Dohme LLC, priority 2020, dated 2026)

Biological target: T1, GST-tagged truncated human mutant G2019S LRRK2 (Homo sapiens, UniProt Q5S007, G2019S)
T1 construct: GST-tagged truncated human mutant G2019S LRRK2; purchased Life Technologies Corporation (Carlsbad, CA)
Assay: LRRK2 G2019S Km ATP LanthaScreen assay
Assay type: biochemical
Conditions: 134 μM ATP (Km ATP), LRRKtide substrate, mean of several tests, read-out: LRRK2 pIC50 (converted)
Description: Unless otherwise noted, all reactions are magnetically stirred. Unless otherwise noted, when diethyl ether is used in the experiments described below, it is Fisher ACS certified material and is stabilized with BHT. Unless otherwise noted, “concentrated” and/or “solvent removed under reduced pressure” means evaporating the solvent from a solution or mixture using a rotary evaporator or vacuum pump. Unless otherwise noted, flash chromatography is carried out on a Teledyne Isco (Lincoln, NE), Analogix (Burlington, WI), or Biotage (Stockholm, SWE) automated chromatography system using a commercially available cartridge as the column. Columns may be purchased from Teledyne Isco, Analogix, Biotage, Varian (Palo Alto, CA), or Supelco (Bellefonte, PA) and are usually filled with silica gel as the stationary phase. Reverse phase prep-HPLC conditions, where used, can be found at the end of each experimental section. Aqueous solutions were concentrated on a Genevac (Ipswich, ENG) or by freeze-drying/lyophilization. Unless otherwise noted, all LRRK2 pIC50 data presented in tables refers to the LRRK2 G2019S Km ATP LanthaScreen™ assay (Life Technologies Corp., Carlsbad, CA) that is described in the Biological Assay section.
Biological Assay: LRRK2 Km ATP LanthaScreen™ Assay
The LRRK2 kinase activity reported herein as IC50 values was determined with LanthaScreen™ technology from Life Technologies Corporation (Carlsbad, CA) using GST-tagged truncated human mutant G2019S LRRK2 in the presence of the fluorescein-labeled peptide substrate LRRKtide, also from Life Technologies. The data presented for the Km ATP LanthaScreen™ Assay represents mean IC50 values based on several test results and may have reasonable deviations depending on the specific conditions and reagents used. Assays were performed in the presence of 134 μM ATP (Km ATP). Upon completion, the assay was stopped and phosphorylated substrate detected with a terbium (Tb)-labeled anti-pERM antibody (cat. no. PV4898). The compound dose response was prepared by diluting a 10 mM stock of compound to a maximum concentration of 9.99 μM in 100% dimethylsulfoxide followed by custom fold serial dilution in dimethylsulfoxide nine times. Twenty nanoliters of each dilution was spotted via a Labcyte Echo onto a 384-well black-sided plate (Corning 3575) followed by 15 μl of a 1.25 nM enzyme solution in 1× assay buffer (50 mM Tris pH 8.5, 10 mM MgCl2, 0.01% Brij-35, 1 mM EGTA, 2 mM dithiothreitol, 0.05 mM sodium orthovanadate). Following a 15-minute incubation at room temperature, the kinase reaction was started with the addition of 5 μl of 400 nM fluorescein-labeled LRRKtide peptide substrate and 134 μM ATP solution in 1× assay buffer. The reaction was allowed to progress at ambient temperature for 90 minutes. The reaction was then stopped by the addition of 20 μl of TR-FRET Dilution Buffer (Life Technologies, Carlsbad, CA) containing 2 nM Tb-labeled anti-phospho LRRKtide antibody and 10 mM EDTA (Life Technologies, Carlsbad, CA). After an incubation of 1 hour at room temperature, the plate was read on an EnVision multimode plate reader (Perkin Elmer, Waltham, MA) with an excitation wavelength of 337 nm (Laser) and a reading emission at both 520 and 495 nm. Compound IC50s were interpolated from nonlinear regression best fits of the log of the final compound concentration, plotted as a function of the 520/495-nm emission ratio using Activity base. Abase uses a 4 parameter (4P) logistic fit based on the Levenberg-Marquardt algorithm.

T1 sequence (Q5S007 970-2527 G2019S limits assumed): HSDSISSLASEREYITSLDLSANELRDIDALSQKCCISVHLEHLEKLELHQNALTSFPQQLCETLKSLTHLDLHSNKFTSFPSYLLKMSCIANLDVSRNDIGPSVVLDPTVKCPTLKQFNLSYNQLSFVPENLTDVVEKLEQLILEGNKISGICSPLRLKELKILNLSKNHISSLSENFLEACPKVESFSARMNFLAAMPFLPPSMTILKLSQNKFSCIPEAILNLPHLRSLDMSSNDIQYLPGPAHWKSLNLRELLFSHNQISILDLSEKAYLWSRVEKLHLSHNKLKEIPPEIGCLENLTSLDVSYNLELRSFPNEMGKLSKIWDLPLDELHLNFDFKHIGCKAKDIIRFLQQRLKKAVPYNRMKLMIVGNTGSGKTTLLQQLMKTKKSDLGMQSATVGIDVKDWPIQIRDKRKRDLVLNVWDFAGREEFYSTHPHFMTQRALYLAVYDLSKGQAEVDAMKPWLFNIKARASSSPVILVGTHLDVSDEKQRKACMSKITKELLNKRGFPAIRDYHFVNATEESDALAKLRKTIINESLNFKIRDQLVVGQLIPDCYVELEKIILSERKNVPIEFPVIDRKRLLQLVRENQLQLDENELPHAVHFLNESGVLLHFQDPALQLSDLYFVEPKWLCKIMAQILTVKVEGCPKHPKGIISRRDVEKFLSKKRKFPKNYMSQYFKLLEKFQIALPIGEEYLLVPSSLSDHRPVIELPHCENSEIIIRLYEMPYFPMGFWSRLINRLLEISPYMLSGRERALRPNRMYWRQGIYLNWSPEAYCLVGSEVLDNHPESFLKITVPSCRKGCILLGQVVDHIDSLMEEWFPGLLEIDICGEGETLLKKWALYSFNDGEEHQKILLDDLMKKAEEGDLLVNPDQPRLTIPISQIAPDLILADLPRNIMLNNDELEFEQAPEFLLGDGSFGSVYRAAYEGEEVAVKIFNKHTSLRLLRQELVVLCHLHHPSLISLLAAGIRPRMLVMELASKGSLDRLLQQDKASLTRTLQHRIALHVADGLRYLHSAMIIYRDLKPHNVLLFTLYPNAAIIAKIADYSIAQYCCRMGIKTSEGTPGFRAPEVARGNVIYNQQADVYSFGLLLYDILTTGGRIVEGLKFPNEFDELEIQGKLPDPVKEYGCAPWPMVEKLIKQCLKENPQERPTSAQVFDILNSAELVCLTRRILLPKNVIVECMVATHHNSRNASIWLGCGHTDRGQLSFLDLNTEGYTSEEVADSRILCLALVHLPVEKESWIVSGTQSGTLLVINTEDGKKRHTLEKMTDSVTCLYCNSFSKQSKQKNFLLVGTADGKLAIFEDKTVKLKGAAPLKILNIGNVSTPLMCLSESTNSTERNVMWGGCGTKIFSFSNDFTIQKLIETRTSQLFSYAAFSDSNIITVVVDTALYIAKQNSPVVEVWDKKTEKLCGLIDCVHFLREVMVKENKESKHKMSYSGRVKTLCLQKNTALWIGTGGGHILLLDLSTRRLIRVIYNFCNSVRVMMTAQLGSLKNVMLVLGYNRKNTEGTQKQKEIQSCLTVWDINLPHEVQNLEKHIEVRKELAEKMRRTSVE

Structure (SMILES)	IC50
CC1(N2CCN(c3cc4cc(NC(=O)C5CC56CCC(F)(F)CC6)ncc4cc3Cl)CC2)COCC1O (single isomer, unassigned) [Ex-1.20, (1R or 1S)-N-(7-chloro-6-(4-((3R,4R or 3S,4S)-4-hydroxy-3-methyltetrahydrofuran-3-yl)piperazin-1-yl)isoquinolin-3-yl)-6,6-difluorospiro[2.5]octane-1-carboxamide]	63.1 nM
CC1(C)CC(C(=O)Nc2cc3cc(N4CCN(C5(C)COCC5O)CC4)c(Cl)cc3cn2)CO1 (single isomer, unassigned) [Ex-1.21, (R or S)-N-(7-chloro-6-(4-((3R,4R or 3S,4S)-4-hydroxy-3-methyltetrahydrofuran-3-yl)piperazin-1-yl)isoquinolin-3-yl)-5,5-dimethyltetrahydrofuran-3-carboxamide]	1.74 nM
CC1(C)CC(C(=O)Nc2cc3cc(N4CCN(C5(C)COCC5O)CC4)c(Cl)cc3cn2)CO1 (single isomer, unassigned) [Ex-1.22, (R or S)-N-(7-chloro-6-(4-((3R,4R or 3S,4S)-4-hydroxy-3-methyltetrahydrofuran-3-yl)piperazin-1-yl)isoquinolin-3-yl)-5,5-dimethyltetrahydrofuran-3-carboxamide]	1.17 nM
CC1(C)OCCC1C(=O)Nc1cc2cc(N3CCN(C4(C)COCC4O)CC3)c(Cl)cc2cn1 (single isomer, unassigned) [Ex-1.23, (R or S)-N-(7-chloro-6-(1-((3R,4R or 3S,4S)-4-hydroxy-3-methyltetrahydrofuran-3-yl)piperazin-4-yl)isoquinolin-3-yl)-2,2-dimethyltetrahydrofuran-3-carboxamide]	7.41 nM
CC1(C)OCCC1C(=O)Nc1cc2cc(N3CCN(C4(C)COCC4O)CC3)c(Cl)cc2cn1 (single isomer, unassigned) [Ex-1.24, (R or S)-N-(7-chloro-6-(1-((3R,4R or 3S,4S)-4-hydroxy-3-methyltetrahydrofuran-3-yl)piperazin-4-yl)isoquinolin-3-yl)-2,2-dimethyltetrahydrofuran-3-carboxamide]	69.2 nM
COCC1CCC1C(=O)Nc1cc2cc(N3CCN(C4(C)COCC4O)CC3)c(Cl)cc2cn1 (single isomer, unassigned) [Ex-1.25, (1R,2S or 1R,2R, or 1S,2S, or 1S,2R)-N-(7-chloro-6-(4-((3R,4R)-4-hydroxy-3-methyltetrahydrofuran-3-yl)piperazin-1-yl)isoquinolin-3-yl)-2-(methoxymethyl)cyclobutane-1-carboxamide]	0.158 nM
COCC1CCC1C(=O)Nc1cc2cc(N3CCN(C4(C)COCC4O)CC3)c(Cl)cc2cn1 (single isomer, unassigned) [Ex-1.26, (1R,2S or 1R,2R, or 1S,2S, or 1S,2R)-N-(7-chloro-6-(4-((3R,4R)-4-hydroxy-3-methyltetrahydrofuran-3-yl)piperazin-1-yl)isoquinolin-3-yl)-2-(methoxymethyl)cyclobutane-1-carboxamide]	1.45 nM
CC1(N2CCN(c3cc4cc(NC(=O)C5CCC56CCOCC6)ncc4cc3Cl)CC2)COCC1O (single isomer, unassigned) [Ex-1.27, (R or S)-N-(7-chloro-6-(4-((3R,4R or 3S,4S)-4-hydroxy-3-methyltetrahydrofuran-3-yl)piperazin-1-yl)isoquinolin-3-yl)-7-oxaspiro[3.5]nonane-1-carboxamide]	1.29 nM
CC1(N2CCN(c3cc4cc(NC(=O)C5CCC56CCOCC6)ncc4cc3Cl)CC2)COCC1O (single isomer, unassigned) [Ex-1.28, (R or S)-N-(7-chloro-6-(4-((3R,4R or 3S,4S)-4-hydroxy-3-methyltetrahydrofuran-3-yl)piperazin-1-yl)isoquinolin-3-yl)-7-oxaspiro[3.5]nonane-1-carboxamide]	12 nM
CC1(N2CCN(c3cc4cc(NC(=O)C5CC56CCOCC6)ncc4cc3Cl)CC2)COCC1O (single isomer, unassigned) [Ex-2.1, (R or S)-N-(7-chloro-6-(4-((3R,4R or 3S,4S)-4-hydroxy-3-methyltetrahydrofuran-3-yl)piperazin-1-yl)isoquinolin-3-yl)-6-oxaspiro[2.5]octane-1-carboxamide]	0.389 nM
CC1(N2CCN(c3cc4cc(NC(=O)C5CC56CCOCC6)ncc4cc3Cl)CC2)COCC1O (single isomer, unassigned) [Ex-2.2, (R or S)-N-(7-chloro-6-(4-((3R,4R or 3S,4S)-4-hydroxy-3-methyltetrahydrofuran-3-yl)piperazin-1-yl)isoquinolin-3-yl)-6-oxaspiro[2.5]octane-1-carboxamide]	3.63 nM
C[C@H]1CN(c2cc3cc(NC(=O)C4CC45CCOCC5)ncc3cc2Cl)CCN1C1COCC1O (single isomer, unassigned) [Ex-2.3, (R or S)-N-{7-chloro-6-[(3S or 3R)-4-(3R,4R or 3S,4S)-4-hydroxyoxolan-3-yl)-3-methylpiperazin-1-yl]isoquinolin-3-yl}-6-oxaspiro[2.5]octane-1-carboxamide]	17.4 nM
C[C@H]1CN(c2cc3cc(NC(=O)C4CC45CCOCC5)ncc3cc2Cl)CCN1C1COCC1O (single isomer, unassigned) [Ex-2.4, (R or S)-N-{7-chloro-6-[(3S or 3R)-4-(3R,4R or 3S,4S)-4-hydroxyoxolan-3-yl)-3-methylpiperazin-1-yl]isoquinolin-3-yl}-6-oxaspiro[2.5]octane-1-carboxamide]	0.38 nM
O=C(Nc1cc2cc(N3CCN(C4COCC4O)CC3)c(Cl)cc2cn1)C1CC12CCOCC2 (single isomer, unassigned) [Ex-2.5, (R or S)-N-(7-chloro-6-(4-((3R,4R or 3S,4S)-4-hydroxytetrahydrofuran-3-yl)piperazin-1-yl)isoquinolin-3-yl)-6-oxaspiro[2.5]octane-1-carboxamide]	41.7 nM
O=C(Nc1cc2cc(N3CCN(C4COCC4O)CC3)c(Cl)cc2cn1)C1CC12CCOCC2 (single isomer, unassigned) [Ex-2.6, (R or S)-N-(7-chloro-6-(4-((3R,4R or 3S,4S)-4-hydroxytetrahydrofuran-3-yl)piperazin-1-yl)isoquinolin-3-yl)-6-oxaspiro[2.5]octane-1-carboxamide]	3.09 nM
O=C(Nc1cc2cc(N3CCN(C4COCC4O)CC3)c(Cl)cc2cn1)C1CC12CCOCC2 (single isomer, unassigned) [Ex-2.7, (R or S)-N-(7-chloro-6-(4-((3R,4R or 3S,4S)-4-hydroxytetrahydrofuran-3-yl)piperazin-1-yl)isoquinolin-3-yl)-6-oxaspiro[2.5]octane-1-carboxamide]	380 nM
O=C(Nc1cc2cc(N3CCN(C4COCC4O)CC3)c(Cl)cc2cn1)C1CC12CCOCC2 (single isomer, unassigned) [Ex-2.8, (R or S)-N-(7-chloro-6-(4-((3R,4R or 3S,4S)-4-hydroxytetrahydrofuran-3-yl)piperazin-1-yl)isoquinolin-3-yl)-6-oxaspiro[2.5]octane-1-carboxamide]	24 nM
CC1(N2CCN(c3cc4cc(NC(=O)C5CC56CCOC6)ncc4cc3Cl)CC2)COCC1O (single isomer, unassigned) [Ex-2.9, (1R,3R or 1S,3S)-N-(7-chloro-6-(4-((3R,4R or 3S,4S)-4-hydroxy-3-methyltetrahydrofuran-3-yl)piperazin-1-yl)isoquinolin-3-yl)-5-oxaspiro[2.4]heptane-1-carboxamide]	0.195 nM
